Experimental data published in ChEMBL document CHEMBL3875210, “Synthesis, functionalization and biological activity of arylated derivatives of (+)-estrone” (Bioorg Med Chem, 2017).

Target: Pancreatic triacylglycerol lipase (Sus scrofa) (UniProt P00591)
Experiment: Inhibition of porcine pancreatic lipase using p-nitrophenylbutyrate as substrate preincubated for 10 mins followed by substrate addition measured after 20 mins
Details: not given
Compound C[C@]12CC[C@@H]3c4ccc5oc(=O)c6ccccc6c5c4CC[C@H]3[C@@H]1CCC2=O has an IC50 of 1.36 µM.
For Cc1cc(C)cc(-c2cc3c(c(-c4cc(C)cc(C)c4)c2O)CC[C@@H]2[C@@H]3CC[C@]3(C)C(=O)CC[C@@H]23)c1, the IC50 was 24.1 µM.
C[C@]12CC[C@@H]3c4cc(-c5ccc(Cl)cc5)c(O)c(-c5ccc(Cl)cc5)c4CC[C@H]3[C@@H]1CCC2=O gave an IC50 of 1.75 µM.
C[C@]12CC[C@@H]3c4ccc(O)c(-c5ccccc5)c4CC[C@H]3[C@@H]1CCC2=O gave an IC50 of 1.54 µM.
COc1ccc(-c2cc3c(cc2O)CC[C@@H]2[C@@H]3CC[C@]3(C)C(=O)CC[C@@H]23)cc1 showed an IC50 of 12.3 µM.
For C[C@]12CC[C@@H]3c4cc(-c5cccc(F)c5)c(O)cc4CC[C@H]3[C@@H]1CCC2=O, the IC50 was 16.3 µM.
For C[C@]12CC[C@@H]3c4ccc(O)c(-c5ccc(C(F)(F)F)cc5)c4CC[C@H]3[C@@H]1CCC2=O, the IC50 was 0.82 µM.
In the case of COc1cc(OC)cc(-c2c(O)ccc3c2CC[C@@H]2[C@@H]3CC[C@]3(C)C(=O)CC[C@@H]23)c1, the IC50 is reported as 59.7 µM.
COc1ccc(-c2cc3c(c(-c4ccc(OC)cc4)c2O)CC[C@@H]2[C@@H]3CC[C@]3(C)C(=O)CC[C@@H]23)cc1 showed an IC50 of 5.28 µM.
Work on CCc1ccc(-c2c(O)ccc3c2CC[C@@H]2[C@@H]3CC[C@]3(C)C(=O)CC[C@@H]23)cc1 yielded an IC50 of 13.6 µM.
C[C@]12CC[C@@H]3c4cc(-c5ccccc5F)c5oc6ccccc6c5c4CC[C@H]3[C@@H]1CCC2=O showed an IC50 of 0.93 µM.
Cc1ccc(-c2cc3c(cc2O)CC[C@@H]2[C@@H]3CC[C@]3(C)C(=O)CC[C@@H]23)cc1 gave an IC50 of 1.21 µM.
C[C@]12CC[C@@H]3c4ccc(O)c(-c5ccc(OC(F)(F)F)cc5)c4CC[C@H]3[C@@H]1CCC2=O gave an IC50 of 6.42 µM.
With CC(C)(C)c1ccc(-c2cc3c(cc2O)CC[C@@H]2[C@@H]3CC[C@]3(C)C(=O)CC[C@@H]23)cc1 the IC50 was 5.66 µM.
In the case of CC(C)(C)c1ccc(-c2c(O)ccc3c2CC[C@@H]2[C@@H]3CC[C@]3(C)C(=O)CC[C@@H]23)cc1, the IC50 is reported as 1.78 µM.
C[C@]12CC[C@@H]3c4cc(-c5ccc(OC(F)(F)F)cc5)c(O)cc4CC[C@H]3[C@@H]1CCC2=O gave an IC50 of 2.54 µM.
C[C@]12CC[C@@H]3c4ccc(O)c(-c5cccc(F)c5)c4CC[C@H]3[C@@H]1CCC2=O showed an IC50 of 1.34 µM.
C[C@]12CC[C@@H]3c4cc(-c5ccc(OC(F)(F)F)cc5)c(O)c(-c5ccc(OC(F)(F)F)cc5)c4CC[C@H]3[C@@H]1CCC2=O gave an IC50 of 1.21 µM.
In the case of C[C@]12CC[C@@H]3c4cc(-c5ccc(C(F)(F)F)cc5)c(O)cc4CC[C@H]3[C@@H]1CCC2=O, the IC50 is reported as 16.3 µM.
C[C@]12CC[C@@H]3c4cc(-c5cccc(F)c5)c(O)c(-c5cccc(F)c5)c4CC[C@H]3[C@@H]1CCC2=O showed an IC50 of 7.19 µM.
COc1cc(OC)cc(-c2cc3c(cc2O)CC[C@@H]2[C@@H]3CC[C@]3(C)C(=O)CC[C@@H]23)c1 showed an IC50 of 16.4 µM.
C[C@]12CC[C@@H]3c4cc(-c5ccccc5)c(O)c(-c5ccccc5)c4CC[C@H]3[C@@H]1CCC2=O gave an IC50 of 25.6 µM.
CC(C)(C)c1ccc(-c2cc3c(c(-c4ccc(C(C)(C)C)cc4)c2O)CC[C@@H]2[C@@H]3CC[C@]3(C)C(=O)CC[C@@H]23)cc1 gave an IC50 of 8.29 µM.
Compound C[C@]12CC[C@@H]3c4cc(-c5ccc(F)cc5)c(O)c(-c5ccc(F)cc5)c4CC[C@H]3[C@@H]1CCC2=O has an IC50 of 0.82 µM.

Test system: pancreatic lipase (Sus scrofa)
Experiment: Inhibition of pancreatic lipase (unknown origin) at 100 uM using p-nitrophenylbutyrate as substrate preincubated for 10 mins followed by substrate addition measured after 20 mins
Details: not given
C[C@]12CC[C@@H]3c4ccc(O)c(-c5ccc(Cl)cc5)c4CC[C@H]3[C@@H]1CCC2=O gave an inhibition of 45%.
C[C@]12CC[C@@H]3c4ccc5oc6ccccc6c5c4CC[C@H]3[C@@H]1CCC2=O showed an inhibition of 32%.
For C[C@]12CC[C@@H]3c4cc(-c5ccc(C(F)(F)F)cc5)c(O)c(-c5ccc(C(F)(F)F)cc5)c4CC[C@H]3[C@@H]1CCC2=O, the inhibition was 42%.
In the case of C[C@]12CC[C@@H]3c4cc(-c5ccccc5F)c(O)c(-c5ccccc5F)c4CC[C@H]3[C@@H]1CCC2=O, the inhibition is reported as 43%.
For Cc1ccc(-c2c(O)ccc3c2CC[C@@H]2[C@@H]3CC[C@]3(C)C(=O)CC[C@@H]23)cc1, the inhibition was 38%.
COc1ccc(-c2c(O)ccc3c2CC[C@@H]2[C@@H]3CC[C@]3(C)C(=O)CC[C@@H]23)cc1 showed an inhibition of 42%.
For C[C@]12CC[C@@H]3c4cc(-c5ccccc5)c(O)cc4CC[C@H]3[C@@H]1CCC2=O, the inhibition was 39%.
In the case of COc1ccc(-c2c(O)ccc3c2CC[C@@H]2[C@@H]3CC[C@]3(C)C(=O)CC[C@@H]23)c(OC)c1OC, the inhibition is reported as 43%.
CCc1ccc(-c2cc3c(c(-c4ccc(CC)cc4)c2O)CC[C@@H]2[C@@H]3CC[C@]3(C)C(=O)CC[C@@H]23)cc1 gave an inhibition of 41%.
For Cc1ccc(-c2cc3c(c(-c4ccc(C)cc4)c2O)CC[C@@H]2[C@@H]3CC[C@]3(C)C(=O)CC[C@@H]23)cc1, the inhibition was 39%.
Compound COc1ccc(-c2cc3c(c(-c4ccc(OC)c(OC)c4OC)c2O)CC[C@@H]2[C@@H]3CC[C@]3(C)C(=O)CC[C@@H]23)c(OC)c1OC has an inhibition of 37%.

Target: not listed separately
Experiment: Inhibition of pancreatic lipase (unknown origin) assessed as decrease in release of fatty acid from triolein incubated for 30 mins by phenolphthalein-baed titrimetric method
Parameters: species or system Homo sapiens
Details: not given
In the case of CC(C)c1cc2c(c(O)c1O)[C@@]1(C(=O)O)CCCC(C)(C)[C@@H]1CC2 [CARNOSIC ACID], the IC50 is reported as 12 µg/mL.

Same assay, conditions: read-out: IC50
For C[C@H]1[C@H](C)CC[C@]2(C(=O)O)CC[C@]3(C)C(=CC[C@@H]4[C@@]5(C)CC[C@H](O)C(C)(C)[C@@H]5CC[C@]43C)[C@H]12 [URSOLIC ACID], the IC50 was 15.8 µM.
With Oc1cc(O)c2c(c1)O[C@H](c1ccc(O)c(O)c1)[C@H](O)C2 [(-)-EPICATECHIN] the IC50 was > 20 µM.
Compound Cc1cc2c(c(O)c1-c1c(C)cc3c(c1O)C(=O)c1c(O)cc(O)cc1C3=O)C(=O)c1c(O)cccc1C2=O [CASSIAMIN A] has an IC50 of 41.8 µM.
